According to US7071158B2, “Antioxidant enhancement of therapy for hyperproliferative conditions” (Atherogenics, Inc., priority 1997, dated 2006):

Columns and labels:
rats = details: intravenously; cited from earlier work
HCT 15 cells = assay: Apoptotic index (TUNEL) with or without induced C/EBPβ overexpression; type: cell-based, human; details: 5-FU 1.5 μM or doxorubicin 0.1 μM, 24 hours
Protocol: Control HCT 15 cells and the sense C/EBPβ cell line were induced with 10 μM muristerone A and exposed to either 5-FU (1.5 μM) or doxorubicin (0.1 μM) for 24 hours. The apoptotic index was calculated as described in FIG. 4C.
Finally, the functional role of C/EBPβ was examined in the apoptotic signaling pathway by generating lines of HCT 15 cells that were stably transfected with the human C/EBPβ cDNA, in both the sense and antisense orientation, under the control of an ecdysone inducible promoter. To avoid the possibility that constitutively expressed C/EBPβ might induce cell death, and ecdysone (muristerone A)-inducible expression system (Invitrogen, Carlsbad, Calif.) was used. Human C/EBPβ cDNA was subcloned into pIND at convenient enzyme cleavage ites. Constructs, containing sense and antisense C/EBPβ sequences were verified by double-stranded DNA sequencing. Before transfection, pIND-C/EBPβ constructs were linearized with Pme I and purified. HCT 15 cells were transfected with 5 μg of pVgRXR (Invitrogen) and 10 μg of pIND-C/EBPβ using CELLFECTIN according to manufacture's instructions. After 24 hours, cells were shifted to medium supplemented with 1 mg/ml Geneticin and […] puromycin (GIBCO BRL) to select for transfectant clones. After 2 weeks, antibiotic-resistant cells were subcloned by limiting dilution. The expression of C/EBPβ protein and the subsequent induction of p21^WAF1/CIP1 was determined following induction with 10 μM muristerone A for 24 hours and Western blot analysis.

PP2A = assay: Dephosphorylation of radiolabeled C/EBPβ in DKO-1 lysates; type: biochemical, human; details: DKO-1 cell lysates (cells treated with 17 μM PDTC for three hours), ten minutes at 37 degrees C
Protocol: FIG. 13 is a graph of time in hours versus percent radioactivity remaining on the protein substrate. […] The activity of PDTC is compared to I2 (a selective PP1 inhibitor), okadaic acid (an inhibitor of both PP2A and PP1), I2 and PDTC, and okadaic acid and PDTC. DKO-1 cells were grown in the presence of PDTC (test) or not (control). The cells were lysed, and then radioactive phosphorylated C/EBPβ was added. The test compounds were then added, and incubated with the lysate. The protein was collected and the amount of radioactive phosphate remaining in the protein measured.
Cell lysates were prepared and treated with the following reagents in the presence of phosphorylated C/EBPβ in which the phosphate is radiolabeled, for ten minutes at 37 degrees C: I2 (a selective PP1 inhibitor), okadaic acid (a selective inhibitor of PP2A and PP1), PDTC, I2 and PDTC, and okadaic acid and PDTC. […] This effect is reversible following removal of the antioxidant.

In the case of `CC(=O)N[C@@H](CS)C(=O)O` [N-acetylcysteine, acetamido-mercaptopropionic acid], the LD50 (rats) is given as 1140 mg/kg.

With `COc1cccc2c1C(=O)c1c(O)c3c(c(O)c1C2=O)C[C@@](O)(C(=O)CO)C[C@@H]3O[C@H]1C[C@H](N)[C@H](O)[C@H](C)O1` [doxorubicin] the apoptotic index (HCT 15 cells; HCT 15 cells induced to overexpress C/EBPβ) was 80% and the apoptotic index (HCT 15 cells; HCT 15 cells, absence of C/EBPβ overexpression) was “did not induce apoptosis”.

In the case of `C=C1[C@@H](O)[C@@H]2O[C@]3(CC[C@H](/C=C/[C@@H](C)[C@@H]4CC(C)=C[C@@]5(O[C@H](C[C@@](C)(O)C(=O)O)CC[C@H]5O)O4)O3)CC[C@H]2O[C@@H]1[C@@H](O)C[C@H](C)[C@H]1O[C@@]2(CCCCO2)CC[C@H]1C` [okadaic acid, reference compound], the “phosphatase activity toward phosphorylated C/EBPβ” value (PP2A) is reported as “inhibited all DKO-1 phosphatase activity”.

B1: I2: a selective PP1 inhibitor (protein, UniProt P41236 2-205, looked up)
Protein phosphatase inhibitor …: AASTASHRPIKGILKNKTSTTSSMVASAEQPRGNVDEELSKKSQKWDEMNILATYHPADKDYGLMKIDEPSTPYHSMMGDDEDACSDTEATEAMAPDILARKLAAAEGLEPKYRIQEQESSGEEDSDLSPEEREKKRQFEMKRKLHYNEGLNIKLARQLISKDLHDDDEDEEMLETADGESMNTEESNQGSTPSDQQQNKLRSS
For B1, the “phosphatase activity toward phosphorylated C/EBPβ” value (PP2A) was “failed to protect C/EBPβ from dephosphorylation”.
